This note sets out measurements from ChEMBL document CHEMBL4251708, “Synthesis and Biological Screening of Pyrano[3,2-c]quinoline Analogues as Anti-inflammatory and Anticancer Agents” (ACS Med Chem Lett, 2018).

The subject of series [1] is ACHN (Homo sapiens). Nature of the series: Antiproliferative activity against human ACHN cells at 1 uM relative to control.
Series [2] concerns THP-1. Nature of the series: Antiinflammatory activity in PMA-differentiated human THP1 cells assessed as inhibition of LPS-induced TNF-alpha production at 10 uM after 24 hrs by ELISA relative to control. It is filed as functional. To be noted: THP-1, 24 h. Background: ELISA stands for enzyme-linked immunosorbent assay.
The test system of series [3] is MIA PaCa-2 (Homo sapiens). Nature of the series: Antiproliferative activity against human MIA PaCa-2 cells at 1 uM relative to control.
In series [4] the test system is MDA-MB-231 (Homo sapiens). Nature of the series: Antiproliferative activity against human MDA-MB-231 cells at 10 uM relative to control.
Series [5] deals with THP-1 (Homo sapiens). Nature of the series: Antiinflammatory activity in human THP1 cells assessed as inhibition of IL-6 production at 10 uM relative to control. The arrangement: scale not given: the % may be the effect or the level left.
The test system of series [6] is THP-1. Description: Antiinflammatory activity in PMA-differentiated human THP1 cells assessed as inhibition of LPS-induced TNF-alpha production at 1 uM after 24 hrs by ELISA relative to control. It is filed as functional. The settings on record: THP-1, 24 h.
The subject of series [7] is THP-1. Nature of the series: Antiinflammatory activity in PMA-differentiated human THP1 cells assessed as inhibition of LPS-induced IL-6 production at 10 uM after 24 hrs by ELISA relative to control. It is filed as functional. The settings on record: THP-1, 24 h.
The test system of series [8] is MDA-MB-231 (Homo sapiens). Nature of the series: Antiproliferative activity against human MDA-MB-231 cells at 1 uM relative to control. To be noted: mda-mb-231, 1 µM.
Series [9] has as its system THP-1. Description: Antiinflammatory activity in PMA-differentiated human THP1 cells assessed as inhibition of LPS-induced IL-6 production at 1 uM after 24 hrs by ELISA relative to control. The series is classed as functional. The settings on record: THP-1, 24 h.
Series [10] deals with THP-1 (Homo sapiens). Description: Antiinflammatory activity in human THP1 cells assessed as inhibition of TNF-alpha production at 10 uM relative to control. The arrangement: scale not given: the % may be the effect or the level left.
For series [11], the system named is MIA PaCa-2. Description: Antiproliferative activity against human MIAPaCa2 cells at 10 uM relative to control. The series is classed as functional.
The test system of series [12] is PBMC. Description: Antiinflammatory activity in human PBMC assessed as inhibition of LPS-induced TNF-alpha production incubated for 30 mins followed by LPS addition measured after 4.5 hrs by ELISA. The series is classed as functional, cell-based.
For series [13], the system named is THP-1. Description: Antiinflammatory activity in PMA-differentiated human THP1 cells assessed as inhibition of LPS-induced IL-6 production after 24 hrs by ELISA. The series is classed as functional, cell-based. The settings on record: THP-1, 24 h.
Series [14] deals with THP-1. Description: Cytotoxicity against PMA-differentiated human THP1 cells assessed as reduction in cell viability after 4.5 hrs by MTS assay. It is filed as cell-based. To be noted: THP-1, 4.5 h. (In general: Formazan colour is commonly taken as a measure of viable cells.)
Series [15] deals with HCT-116. Description: Antiproliferative activity against human HCT116 cells after 48 hrs by propidium iodide staining based fluorometry. It is filed as functional, cell-based. The settings on record: HCT-116, 48 h.
Series [16] relates to THP-1. Nature of the series: Antiinflammatory activity in PMA-differentiated human THP1 cells assessed as inhibition of LPS-induced TNF-alpha production after 24 hrs by ELISA. It is filed as functional, cell-based. To be noted: THP-1, 24 h.
In series [17] the test system is Calu-1. Nature of the series: Antiproliferative activity against human Calu1 cells after 48 hrs by propidium iodide staining based fluorometry. It is filed as functional, cell-based. The settings on record: Calu-1, 48 h.
For series [18], the system named is NCI-H460. Description: Antiproliferative activity against human H460 cells after 48 hrs by propidium iodide staining based fluorometry. The series is classed as functional, cell-based. To be noted: NCI-H460, 48 h.
The subject of series [19] is ACHN. Nature of the series: Antiproliferative activity against human ACHN cells after 48 hrs by propidium iodide staining based fluorometry. The series is classed as functional, cell-based.
Series [20] has as its system PANC-1. Nature of the series: Antiproliferative activity against human PANC1 cells after 48 hrs by propidium iodide staining based fluorometry. The series is classed as functional, cell-based. To be noted: PANC-1, 48 h.

Active and inactive are the calls of the source. The calls are words filed in the database; no cut-off is given here.

One may read the inhibition as how much of the control response was suppressed. In the case of `Cn1c(=O)c2c(c3ccccc31)OC(N)=C(C#N)C2c1c2ccccc2cc2ccccc12` (stereo unspecified), the Activity in series [1] is recorded as 25%; in series [3] it was 40%; in series [4] it was 69%; in series [5], 0%; in [8] it was 19%; in series [10] it was 0%. Besides, the Activity in [11] was 66%. Also, the values for the inhibition at 10 µM in [2] and in series [7] were 0% and 10%, respectively. In addition, the inhibition at 1 µM in [6] and in [9] was 0% each time.

For orientation: IC50 means the concentration that inhibits the measured activity by half. In the case of `Cn1c(=O)c2c(c3ccccc31)OC(N)=C(C#N)C2c1c[nH]c2ccccc12` (stereo unspecified), the Activity in [1] is listed as 27%; in [3] it was 18%; in series [4], 67%; in series [8], 16%; in series [10], 0%; in series [11] it was 77%. The values for the inhibition at 10 µM in series [2] and in [7] were 0% and 8%, respectively. Further, the inhibition entry in series [12] was “inactive”. The IC50 in [13] was 1.4 µM; in [14] it was 6.8 µM; in [15], more than 20 µM; in series [16], 11 µM; in series [17] it was more than 20 µM; in series [18] it was more than 20 µM. Moreover, the IC50 in series [19] and in series [20] was more than 20 µM each time. For the same molecule, the inhibition at 1 µM in series [6] and in series [9] was 0% in each case.

As to `COc1ccccc1C1C(C#N)=C(N)Oc2c1c(=O)n(C)c1ccccc21` (stereo unspecified), the Activity in series [1] came out at 37%; in [3] it was 24%; in series [4], 18%; in [5], 32%; in series [8], 22%; in [10], 0%. Also, the Activity in series [11] came to 21%. For the same molecule, the inhibition at 10 µM in series [2] was 0%; in series [7] it was 14%. Also, the inhibition at 1 µM in [6] and in series [9] was 0% each time.

Take `CSc1ccc(C2C(C#N)=C(N)Oc3c2c(=O)n(C)c2ccccc32)cc1` (stereo unspecified): the Activity in [1] came to 0%; in [3], 16%; in series [4], 10%; in [5], 37%; in series [8], 0%; in series [10], 28%. In series [11], this molecule displayed an Activity of 17%. For the same molecule, the inhibition at 10 µM in series [2] and in series [7] was 0% each time. Moreover, the inhibition at 1 µM in series [6] and in series [9] was 0% throughout.

Regarding `Cn1c(=O)c2c(c3ccccc31)OC(N)=C(C#N)C2c1cccc(O)c1` (stereo unspecified), the Activity in series [1] is given as 0%; in series [3], 17%; in [4] it was 12%; in [5], 11%; in series [8] it was 0%; in series [10] it was 4%. For the same molecule, the Activity in [11] was found to be 29%. Further, the inhibition at 10 µM in series [2] and in series [7] was 0% throughout. Moreover, the inhibition at 1 µM amounted to 5% in series [6] and 0% in series [9].

For `Cn1c(=O)c2c(c3ccccc31)OC(N)=C(C#N)C2c1ccccc1Cl` (stereo unspecified), the Activity in series [1] is given as 48%; in [3], 26%; in series [5], 0%; in series [8], 0%; in series [10] it was 12%; in [11], 69%. Moreover, the inhibition at 10 µM in series [2] and in series [7] was 0% in each case. In addition, the inhibition at 1 µM in series [6] and in series [9] was 0% each time.

Regarding `Cn1c(=O)c2c(c3ccccc31)OC(N)=C(C#N)C2c1cccc(Cl)c1` (stereo unspecified), the Activity in [1] was found to be 81%; in series [3], 63%; in series [5], 74%; in series [8], 53%; in [10], 44%; in [11], 38%. For the same molecule, the inhibition at 10 µM in series [2] came out at 0%; in series [7], 74%. For the same molecule, the IC50 in [12] was 1.8 µM; in [13], 0.2 µM; in [14] it was more than 10 µM; in series [15] it was 0.3 µM; in [16], 0.5 µM; in series [17], 0.5 µM. Besides, the IC50 in series [18] was 0.3 µM; in [19], 0.1 µM; in series [20], 1 µM. In addition, the inhibition at 1 µM in series [6] and in series [9] was 0% throughout.

On to `C[C@@H]1C[C@H]2[C@@H]3CCC4=CC(=O)C=C[C@]4(C)[C@@]3(F)[C@@H](O)C[C@]2(C)[C@@]1(O)C(=O)CO` [DEXAMETHASONE], for which the results for the inhibition at 1 µM in [6] and in series [9] were 40% and 58%, respectively.

With `Cn1c(=O)c2c(c3ccccc31)OC(N)=C(C#N)C2c1ccc(O)cc1` (stereo unspecified), the Activity in series [1] amounted to 55%; in series [3], 55%; in series [4], 77%; in series [5], 0%; in [8] it was 23%; in [10], 0%. The molecule further registered an Activity in [11] of 83%. The figures for the inhibition at 10 µM in series [2] and in series [7] were 0% and 13%, respectively. The inhibition entry in series [12] is “inactive”. The IC50 is 4 µM in series [13]; 30 µM in [14]; 0.6 µM in series [15]; 10 µM in series [16]; 1.1 µM in series [17]; 1.2 µM in [18]. Besides, the IC50 in series [19] came to 1.8 µM; in series [20], 1.9 µM. For the same molecule, the inhibition at 1 µM in series [6] and in series [9] was 0% throughout.

`COc1ccc(C2C(C#N)=C(N)Oc3c2c(=O)n(C)c2ccccc32)cc1OC` (stereo unspecified): the Activity amounted to 38% in series [1]; 40% in series [3]; 24% in series [4]; 43% in series [5]; 20% in [8]; 0% in series [10]. This molecule came in with an Activity in [11] of 50%. Further, the inhibition at 10 µM in series [2] stood at 0%; in [7], 23%. Further, the inhibition at 1 µM in series [6] and in series [9] was 0% each time.

Regarding `CCOc1cc(C2C(C#N)=C(N)Oc3c2c(=O)n(C)c2ccccc32)ccc1O` (stereo unspecified), the Activity is listed as 6% in series [1]; 27% in [3]; 88% in series [4]; 12% in series [8]; 0% in [10]; 68% in series [11]. The inhibition at 10 µM in series [2] and in [7] was 0% each time. Also, the inhibition at 1 µM in [6] and in series [9] was 0% in each case.

In the case of `CN(C)c1ccc(C2C(C#N)=C(N)Oc3c2c(=O)n(C)c2ccccc32)cc1` (stereo unspecified), the Activity is 41% in [1]; 34% in series [3]; 22% in [4]; 0% in series [5]; 20% in [8]; 0% in series [10]. In addition, in [11], the Activity amounted to 31%. For the same molecule, the inhibition at 10 µM stood at 0% in series [2] and 10% in series [7]. Further, the inhibition at 1 µM in series [6] and in series [9] was 0% throughout.
